Test results published in patent publication US8841413B2, “Antidiabetic compounds” (Cadila Healthcare Limited, priority 2006, dated 2014).

Tests used:
[1] = Stability in human plasma; type: in vitro ADME; conditions: for % degradation in 24 h when incubated with human plasma / half-life (t1/2) in human plasma: 2 μM, 37° C.
How it was run: (§1)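 UV detection at 206 nm tracked the remaining material after HPLC separation at a flow of 1 mL/min in TFA/H2O. Incubations had been ended by adding aqueous TFA (10%, v/v), and eluted peaks were identified by ESI-MS.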

[2] = Stability against liver microsomes; type: in vitro ADME, human; conditions: for % degradation in 24 h when incubated with liver microsomes: 2 μM, 37° C.; for half-life at 2 μM: human, human liver microsomes, pH 7.8, 37° C., read-out: half-life (t1/2) with liver microsomes
How it was run: as §1

[3] = Stability in simulated gastric fluid; type: in vitro ADME; conditions: 37° C., pH 1.5, pepsin; for half-life at 2 μM: simulated gastric fluid with pepsin, read-out: half-life (t1/2) in simulated gastric fluid
How it was run: as §1

[4] = Stability in simulated intestinal fluid; type: in vitro ADME; conditions: 37° C.; for half-life at 2 μM: simulated intestinal fluid, pH 7.5, read-out: half-life (t1/2) in simulated intestinal fluid
How it was run: as §1

human glucagon receptor = target: T1, human glucagon receptor (Homo sapiens, UniProt P47871); assay: In vitro human glucagon antagonist activity (inhibition of cAMP production), CHO/human glucagon R cells; type: cell-based
T1 construct: The full-length cDNA was cloned in pcDNA3.1(Invitrogen); expressed in transfected cells
T1 sequence (P47871 26-477): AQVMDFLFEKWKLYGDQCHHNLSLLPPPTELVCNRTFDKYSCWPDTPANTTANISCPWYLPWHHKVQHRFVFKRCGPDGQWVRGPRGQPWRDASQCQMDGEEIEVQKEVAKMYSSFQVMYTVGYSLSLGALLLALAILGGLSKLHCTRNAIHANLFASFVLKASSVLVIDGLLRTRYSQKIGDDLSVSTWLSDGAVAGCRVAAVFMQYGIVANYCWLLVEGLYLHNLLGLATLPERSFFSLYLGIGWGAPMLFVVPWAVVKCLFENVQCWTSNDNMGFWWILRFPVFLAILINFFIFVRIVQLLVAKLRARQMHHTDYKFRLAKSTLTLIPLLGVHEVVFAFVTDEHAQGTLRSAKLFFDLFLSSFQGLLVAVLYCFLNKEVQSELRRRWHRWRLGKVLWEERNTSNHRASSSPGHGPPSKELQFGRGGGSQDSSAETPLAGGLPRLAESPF

DPP IV = DPP IV (Homo sapiens, UniProt P27487); assay: Stability against DPP IV enzyme; type: in vitro ADME; conditions: for % degradation in 24 h when incubated with DPP-IV enzyme: 2 μM, 37° C.
Sequence of DPP IV (P27487 whole entry, species assumed): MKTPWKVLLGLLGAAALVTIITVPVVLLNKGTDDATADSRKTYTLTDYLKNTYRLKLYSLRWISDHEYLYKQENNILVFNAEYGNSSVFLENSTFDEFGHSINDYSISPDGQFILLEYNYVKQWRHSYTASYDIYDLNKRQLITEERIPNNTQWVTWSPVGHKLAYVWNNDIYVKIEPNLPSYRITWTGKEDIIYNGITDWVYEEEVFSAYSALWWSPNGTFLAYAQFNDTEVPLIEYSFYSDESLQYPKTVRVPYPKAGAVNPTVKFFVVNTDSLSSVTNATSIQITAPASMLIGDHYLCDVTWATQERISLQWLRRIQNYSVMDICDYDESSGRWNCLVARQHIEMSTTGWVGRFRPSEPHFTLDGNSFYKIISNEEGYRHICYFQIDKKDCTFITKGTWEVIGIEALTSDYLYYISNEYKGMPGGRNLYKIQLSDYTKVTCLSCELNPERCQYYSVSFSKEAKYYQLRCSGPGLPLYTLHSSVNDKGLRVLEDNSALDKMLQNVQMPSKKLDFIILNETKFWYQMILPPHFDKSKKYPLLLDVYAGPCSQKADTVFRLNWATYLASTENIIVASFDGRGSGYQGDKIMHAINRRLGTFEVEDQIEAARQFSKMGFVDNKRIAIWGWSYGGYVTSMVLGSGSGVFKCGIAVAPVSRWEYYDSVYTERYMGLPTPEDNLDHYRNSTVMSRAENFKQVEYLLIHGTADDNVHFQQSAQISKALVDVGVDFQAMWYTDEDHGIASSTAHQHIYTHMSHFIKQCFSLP
How it was run: as §1

[5] = test system: RIN5F (Rat Insulinoma) cells; assay: In vitro glucose-dependent insulin secretion (RIN5F cell assay); type: cell-based; conditions: 16.7 mM glucose load, mean ± S.D., n = 3
Experimental: After trypsinization, RIN5F cells were seeded at a concentration of 0.2×10^6·cells per well, in 12 well plates.
The supernatant was collected and the insulin amount was measured by ultra sensitive Rat insulin ELISA kit (Crystal Chem, Ill.). The protein was estimated in the supernatant using Bicinchoninic Acid kit, according to the manufacturer's protocol (Sigma Aldrich, Mo.). The total insulin content obtained in Pico-gram (pg) was divided with the total protein (μg) in order to normalize for differences in cell density between wells.

[6] = 1 nM test compound (fourth concentration column, between 100 nM and 10 μM) with saturated concentration of glucagon peptide
[7] = 1 nM test compound with saturated concentration of glucagon peptide
[8] = 10 nM test compound with saturated concentration of glucagon peptide
[9] = 100 nM test compound with saturated concentration of glucagon peptide
[10] = 10 μM test compound with saturated concentration of glucagon peptide

For `CCc1cc(OC)ccc1-c1ccc(CC(NC(=O)[C@H](CC(=O)O)NC(=O)[C@H](CO)NC(=O)[C@@H](NC(=O)C(C)(Cc2ccccc2F)NC(=O)[C@@H](NC(=O)CNC(=O)[C@H](CCC(N)=O)NC(=O)[C@H](C)NC(=O)[C@@H](N)Cc2c[nH]cn2)[C@@H](C)O)[C@@H](C)O)C(=O)NC(Cc2ccc(-c3ccccc3F)cc2)C(N)=O)cc1` (single isomer, unassigned) [compound 27], the “% degradation in 24 h when incubated with human plasma” value (“% degradation … with human plasma” for short) [1] was 70%, the half-life at 2 μM ([1]; human, pooled human plasma, pH 7.8, 37° C., read-out: half-life (t1/2) in human plasma) was 480 min and the “% degradation in 24 h when incubated with liver microsomes” value (“% degradation … with liver microsomes” below) [2] was 77%. For the same molecule, the half-life at 2 μM [2] was 60 min, the “% degradation in 24 h when incubated with simulated gastric fluid” value (shortened to “% degradation … with simulated gastric fluid”) ([3]; 2 μM) was 15% and the “half-life (t1/2) in simulated gastric fluid” value ([3]; 2 μM) was “(8) h”. The “% degradation in 24 h when incubated with simulated intestinal fluid” value (“% degradation … with simulated intestinal fluid” below) ([4]; 2 μM, pH 7.5) was 41%, the “half-life (t1/2) in simulated intestinal fluid” value ([4]; 2 μM, pH 7.5) was “(6) h” and the “Human Glucagon receptor antagonistic activity, inhibition of cAMP production of Glucagon peptide” value (human glucagon receptor; [6]) was 3 ± 0.12 pmol/ml/μg prt. The “Human Glucagon receptor antagonistic activity, inhibition of cAMP production of Glucagon peptide” value (human glucagon receptor; [7]) was 14 ± 0.02 pmol/ml/μg prt, the “Human Glucagon receptor antagonistic activity, inhibition of cAMP production of Glucagon peptide” value (human glucagon receptor; [8]) was 11 ± 0.03 pmol/ml/μg prt and the “Human Glucagon receptor antagonistic activity, inhibition of cAMP production of Glucagon peptide” value (human glucagon receptor; [9]) was 7 ± 0.22 pmol/ml/μg prt. The “Human Glucagon receptor antagonistic activity, inhibition of cAMP production of Glucagon peptide” value (human glucagon receptor; [10]) was 0 pmol/ml/μg prt, the “% degradation in 24 h when incubated with DPP-IV enzyme” value (“% degradation … with DPP-IV enzyme” for short) (DPP IV) was 86% and the half-life at 2 μM (DPP IV; DPP IV enzyme, pH 7.8, 37° C., read-out: half-life (t1/2) with DPP-IV enzyme) was 540 min. It also gave an Insulin secretion ([5]; 0.1 nM test compd.) of 12.6 ± 0.25 pg/µg/h, an Insulin secretion ([5]; 1 nM test compd.) of 15.3 ± 0.31 pg/µg/h and an Insulin secretion ([5]; 10 nM test compd.) of 29.7 ± 0.48 pg/µg/h.
In the case of `CCc1cc(OC)ccc1-c1ccc(CC(NC(=O)[C@H](CC(=O)O)NC(=O)[C@H](CO)NC(=O)[C@@H](NC(=O)[C@H](Cc2ccccc2)NC(=O)[C@@H](NC(=O)CNC(=O)[C@H](CCC(N)=O)NC(=O)[C@H](CO)NC(=O)[C@@H](N)Cc2c[nH]cn2)[C@@H](C)O)[C@@H](C)O)C(=O)NC(Cc2ccc(-c3ccccc3C(F)(F)F)cc2)C(N)=O)cc1` (single isomer, unassigned) [compound 8], the “half-life (t1/2) in human plasma” value [1] is reported as “(9) h”, the “% degradation … with human plasma” value [1] is reported as 78% and the “% degradation … with liver microsomes” value [2] is reported as 100%. The half-life at 2 μM [2] was 30 min, the “% degradation … with simulated gastric fluid” value ([3]; 2 μM) was 100% and the half-life at 2 μM [3] was 30 min. The “% degradation … with simulated intestinal fluid” value ([4]; 2 μM, pH 7.5) was 100%, the half-life at 2 μM [4] was 30 min and the “Human Glucagon receptor antagonistic activity, inhibition of cAMP production of Glucagon peptide” value (human glucagon receptor; [6]) was 0 pmol/ml/μg prt. For the same molecule, the “Human Glucagon receptor antagonistic activity, inhibition of cAMP production of Glucagon peptide” value (human glucagon receptor; [7]) was 4 ± 0.01 pmol/ml/μg prt, the “Human Glucagon receptor antagonistic activity, inhibition of cAMP production of Glucagon peptide” value (human glucagon receptor; [8]) was 2 ± 0.17 pmol/ml/μg prt and the “Human Glucagon receptor antagonistic activity, inhibition of cAMP production of Glucagon peptide” value (human glucagon receptor; [9]) was 0 pmol/ml/μg prt. The “Human Glucagon receptor antagonistic activity, inhibition of cAMP production of Glucagon peptide” value (human glucagon receptor; [10]) was 0 pmol/ml/μg prt, the “% degradation … with DPP-IV enzyme” value (DPP IV) was 76% and the Insulin secretion ([5]; 0.1 nM test compd.) was 12.6 ± 0.20 pg/µg/h. The Insulin secretion ([5]; 1 nM test compd.) was 15.9 ± 0.31 pg/µg/h and the Insulin secretion ([5]; 10 nM test compd.) was 28.4 ± 0.11 pg/µg/h.
For `CCc1cc(OC)ccc1-c1ccc(CC(NC(=O)[C@H](CC(=O)O)NC(=O)[C@H](CO)NC(=O)[C@@H](NC(=O)[C@H](Cc2ccccc2)NC(=O)[C@@H](NC(=O)CNC(=O)[C@H](CCC(N)=O)NC(=O)[C@H](C)NC(=O)[C@@H](N)Cc2c[nH]cn2)[C@@H](C)O)[C@@H](C)O)C(=O)NC(Cc2ccc(-c3ccccc3C)nc2)C(N)=O)cc1` (single isomer, unassigned) [compound 10], the “half-life (t1/2) in human plasma” value [1] was “(9) h”, the “% degradation … with human plasma” value [1] was 71% and the “% degradation … with liver microsomes” value [2] was 100%. The half-life at 2 μM [2] was 30 min, the “% degradation … with simulated gastric fluid” value ([3]; 2 μM) was 100% and the half-life at 2 μM [3] was 30 min. For the same molecule, the “% degradation … with simulated intestinal fluid” value ([4]; 2 μM, pH 7.5) was 100%, the half-life at 2 μM [4] was 30 min and the “Human Glucagon receptor antagonistic activity, inhibition of cAMP production of Glucagon peptide” value (human glucagon receptor; [6]) was 4 ± 0.01 pmol/ml/μg prt. For the same molecule, the “Human Glucagon receptor antagonistic activity, inhibition of cAMP production of Glucagon peptide” value (human glucagon receptor; [7]) was 15 ± 0.11 pmol/ml/μg prt, the “Human Glucagon receptor antagonistic activity, inhibition of cAMP production of Glucagon peptide” value (human glucagon receptor; [8]) was 12 ± 0.13 pmol/ml/μg prt and the “Human Glucagon receptor antagonistic activity, inhibition of cAMP production of Glucagon peptide” value (human glucagon receptor; [9]) was 8 ± 0.09 pmol/ml/μg prt. For the same molecule, the “Human Glucagon receptor antagonistic activity, inhibition of cAMP production of Glucagon peptide” value (human glucagon receptor; [10]) was 2 ± 0.08 pmol/ml/μg prt, the “% degradation … with DPP-IV enzyme” value (DPP IV) was 70% and the Insulin secretion ([5]; 0.1 nM test compd.) was 12.7 ± 0.21 pg/µg/h. It also gave an Insulin secretion ([5]; 1 nM test compd.) of 15.8 ± 0.33 pg/µg/h and an Insulin secretion ([5]; 10 nM test compd.) of 29.3 ± 0.19 pg/µg/h.
